Results: paper PMC10778198, “First-in-Human Dose-Escalation Study of the Novel Oral Depsipeptide Class I-Targeting HDAC Inhibitor Bocodepsin (OKI-179) in Patients with Advanced Solid Tumors” (Cancers, 2023)

Tested on: patients with advanced solid tumors
Assay: phase I dose escalation: safety, DLT, MTD, RP2D (CTCAE v. 5)
Type: in vivo
Text: Subsequent dosing cohorts were enrolled using a standard 3 + 3 design.
If any patient in any cohort of three patients developed a DLT during cycle 1, an additional three patients were recruited to expand the cohort to up to six evaluable patients. If two or more patients in any expanded cohort developed a DLT, this dose was considered non-tolerated, and dose escalation was discontinued. The MTD was defined as the highest dose level for which no more than one of six patients experienced a DLT.
Patients were continuously evaluated for adverse events throughout the study using the Common Terminology Criteria of Adverse Events (CTCAE v. 5). The patients underwent a clinical history and physical examination, an ECOG PS, a complete blood count (CBCs), chemistry, coagulation studies, urinalysis, a serum pregnancy test (as applicable), a triplicate ECG, an ophthalmology examination, and baseline tumor assessment at screening. During cycle 1, weekly history and physical examination, CBC, chemistry, coagulation parameters, urinalysis, and triplicate ECGs were performed; in subsequent cycles, weekly labs were limited to a CBC. Repeat ophthalmology examinations were performed at cycle 3, day 1, and at the end of treatment. Repeat tumor assessment was performed every 2 cycles (6 weeks) in accordance with RECIST 1.1.

[1] = 4:3 intermittent dosing schedule, all grades

Compound: CC(C)[C@H](N)C(=O)SCC/C=C/[C@@H]1CC(=O)NCc2nc(cs2)C(=O)NC(C)(C)C(=O)N[C@@H](C(C)C)C(=O)O1 [OKI-179, Bocodepsin]
- TEAE: Hypokalaemia (4:3, 350 mg (n = 3), G3): 0 n (%)
- TEAE: Muscular weakness (4:3, 350 mg (n = 3), G3): 0 n (%)
- TEAE: Nasal congestion (4:3, 350 mg (n = 3), G3): 0 n (%)
- TEAE: Nausea (4:3, 350 mg (n = 3), G3): 0 n (%)
- TEAE: Platelet count decreased (4:3, 350 mg (n = 3), G3): 0 n (%)
- TEAE: Proteinuria (4:3, 350 mg (n = 3), G3): 0 n (%)
- TEAE: Pyrexia (4:3, 350 mg (n = 3), G3): 0 n (%)
- TEAE: Vomiting (4:3, 350 mg (n = 3), G3): 0 n (%)
- TEAE: Weight decreased (4:3, 350 mg (n = 3), G3): 0 n (%)
- TEAE: Anemia (4:3, 450 mg (n = 6), G1): 0 n (%)
- TEAE: Back pain (4:3, 450 mg (n = 6), G1): 2 (33) n (%)
- TEAE: Cough (4:3, 450 mg (n = 6), G1): 1 (17) n (%)
- TEAE: Decreased appetite (4:3, 450 mg (n = 6), G1): 1 (17) n (%)
- TEAE: Diarrhea (4:3, 450 mg (n = 6), G1): 0 n (%)
- TEAE: Dyspnea (4:3, 450 mg (n = 6), G1): 0 n (%)
- TEAE: ECG QT prolonged (4:3, 450 mg (n = 6), G1): 1 (17) n (%)
- TEAE: Fatigue (4:3, 450 mg (n = 6), G1): 0 n (%)
- TEAE: Headache (4:3, 450 mg (n = 6), G1): 1 (17) n (%)
- TEAE: Hypokalaemia (4:3, 450 mg (n = 6), G1): 0 n (%)
- TEAE: Muscular weakness (4:3, 450 mg (n = 6), G1): 0 n (%)
- TEAE: Nausea (4:3, 450 mg (n = 6), G1): 2 (33) n (%)
- TEAE: Platelet count decreased (4:3, 450 mg (n = 6), G1): 1 (17) n (%)
- TEAE: Proteinuria (4:3, 450 mg (n = 6), G1): 0 n (%)
- TEAE: Pyrexia (4:3, 450 mg (n = 6), G1): 1 (17) n (%)
- TEAE: Vomiting (4:3, 450 mg (n = 6), G1): 1 (17) n (%)
- TEAE: Weight decreased (4:3, 450 mg (n = 6), G1): 1 (17) n (%)
- TEAE: Anemia (4:3, 450 mg (n = 6), G2): 0 n (%)
- TEAE: Back pain (4:3, 450 mg (n = 6), G2): 0 n (%)
- TEAE: Cough (4:3, 450 mg (n = 6), G2): 0 n (%)
- TEAE: Decreased appetite (4:3, 450 mg (n = 6), G2): 1 (17) n (%)
- TEAE: Diarrhea (4:3, 450 mg (n = 6), G2): 0 n (%)
- TEAE: Dyspnea (4:3, 450 mg (n = 6), G2): 0 n (%)
- TEAE: ECG QT prolonged (4:3, 450 mg (n = 6), G2): 0 n (%)
- TEAE: Fatigue (4:3, 450 mg (n = 6), G2): 0 n (%)
- TEAE: Headache (4:3, 450 mg (n = 6), G2): 0 n (%)
- TEAE: Hypokalaemia (4:3, 450 mg (n = 6), G2): 1 (17) n (%)
- TEAE: Muscular weakness (4:3, 450 mg (n = 6), G2): 0 n (%)
- TEAE: Nasal congestion (4:3, 450 mg (n = 6), G2): 0 n (%)
- TEAE: Nausea (4:3, 450 mg (n = 6), G2): 3 (50) n (%)
- TEAE: Platelet count decreased (4:3, 450 mg (n = 6), G2): 2 (33) n (%)
- TEAE: Proteinuria (4:3, 450 mg (n = 6), G2): 3 (50) n (%)
- TEAE: Pyrexia (4:3, 450 mg (n = 6), G2): 0 n (%)
- TEAE: Vomiting (4:3, 450 mg (n = 6), G2): 0 n (%)
- TEAE: Weight decreased (4:3, 450 mg (n = 6), G2): 0 n (%)
- TEAE: Anemia (4:3, 450 mg (n = 6), G3): 2 (33) n (%)
- TEAE: Back pain (4:3, 450 mg (n = 6), G3): 0 n (%)
- TEAE: Cough (4:3, 450 mg (n = 6), G3): 0 n (%)
- TEAE: Decreased appetite (4:3, 450 mg (n = 6), G3): 0 n (%)
- TEAE: Diarrhea (4:3, 450 mg (n = 6), G3): 0 n (%)
- TEAE: Dyspnea (4:3, 450 mg (n = 6), G3): 0 n (%)
- TEAE: ECG QT prolonged (4:3, 450 mg (n = 6), G3): 1 (17) n (%)
- TEAE: Fatigue (4:3, 450 mg (n = 6), G3): 1 (17) n (%)
- TEAE: Headache (4:3, 450 mg (n = 6), G3): 0 n (%)
- TEAE: Hypokalaemia (4:3, 450 mg (n = 6), G3): 0 n (%)
- TEAE: Muscular weakness (4:3, 450 mg (n = 6), G3): 1 (17) n (%)
- TEAE: Nasal congestion (4:3, 450 mg (n = 6), G3): 0 n (%)
- TEAE: Nausea (4:3, 450 mg (n = 6), G3): 0 n (%)
- TEAE: Platelet count decreased (4:3, 450 mg (n = 6), G3): 0 n (%)
- TEAE: Proteinuria (4:3, 450 mg (n = 6), G3): 0 n (%)
- TEAE: Pyrexia (4:3, 450 mg (n = 6), G3): 0 n (%)
- TEAE: Vomiting (4:3, 450 mg (n = 6), G3): 0 n (%)
- TEAE: Weight decreased (4:3, 450 mg (n = 6), G3): 0 n (%)
- TEAE: Anemia [1]: 40%
- TEAE: Diarrhea [1]: 25%
- TEAE: Fatigue [1]: 40%
- TEAE: Nausea [1]: 63%
- TEAE: Vomiting [1]: 30%
- TEAE: anorexia [1]: 35%
- TEAE: decreased platelet count [1]: 30%
- grade 3 TEAE: anemia (4:3 schedule): 25%
- grade 3 TEAE: fatigue (4:3 schedule): 15%
- grade 3 TEAE: prolonged QT (4:3 schedule): 15%
- grade 1 or 2 nausea (4:3 schedule, 450 mg): 83%
- TEAE: Abdominal pain (5:2, 300 mg (N=6), All grades): 1 (17) N (%)
- TEAE: Anemia (5:2, 300 mg (N=6), All grades): 2 (33) N (%)
